ChEMBL document CHEMBL1136158, “Effect of the acyl groups on O-->N acyl migration in the water-soluble prodrugs of HIV-1 protease inhibitor” (Bioorg Med Chem Lett, 2003)
≈ marks a conversion by molar mass, not a printed value.

Assays:
[1] = Solubility ratio of prodrug versus parent drug; type: physicochemical
[2] = Time required for 50% release of parent drug in phosphate buffered saline (PBS) at 37 degrees Centigrade; type: ADME; conditions: buffer
[3] = Dissociation constant was determined; type: physicochemical

CC(C)(C)NC(=O)[C@H]1N(C(=O)[C@@H](O)[C@H](Cc2ccccc2)NC(=O)c2ccccc2)CSC1(C)C
solubility (physchem): 120 µg/mL (≈ 241 µM)

CC(C)(C)NC(=O)[C@H]1N(C(=O)[C@@H](OC(=O)Cc2ccccc2)[C@@H](N)Cc2ccccc2)CSC1(C)C.Cl
solubility (physchem): 33000 µg/mL | Solubility ratio [1]: 340 | T1/2 [2]: 2.2 min | pKa [3]: 4.31

CC(C)(C)NC(=O)[C@H]1N(C(=O)[C@@H](OC(=O)c2ccc(Cl)cc2)[C@@H](N)Cc2ccccc2)CSC1(C)C.Cl
solubility (physchem): 4300 µg/mL | Solubility ratio [1]: 154 | T1/2 [2]: 16 min

Cc1ccc(C(=O)O[C@H](C(=O)N2CSC(C)(C)[C@H]2C(=O)NC(C)(C)C)[C@@H](N)Cc2ccccc2)cc1.Cl
solubility (physchem): 6200 µg/mL | Solubility ratio [1]: 155 | T1/2 [2]: 44 min

CC(C)(C)NC(=O)[C@H]1N(C(=O)[C@@H](OC(=O)c2ccc([N+](=O)[O-])cc2)[C@@H](N)Cc2ccccc2)CSC1(C)C.Cl
solubility (physchem): 13000 µg/mL | Solubility ratio [1]: 228 | T1/2 [2]: 2.6 min

CC(C)(C)NC(=O)[C@H]1N(C(=O)[C@@H](OC(=O)c2ccccc2)[C@@H](N)Cc2ccccc2)CSC1(C)C.Cl
solubility (physchem): 15000 µg/mL | Solubility ratio [1]: 125 | T1/2 [2]: 30 min | pKa [3]: 4.2

COc1ccc(C(=O)N[C@@H](Cc2ccccc2)[C@H](O)C(=O)N2CSC(C)(C)[C@H]2C(=O)NC(C)(C)C)cc1
solubility (physchem): 76 µg/mL (≈ 144 µM)

CC(C)(C)NC(=O)[C@H]1N(C(=O)[C@@H](O)[C@H](Cc2ccccc2)NC(=O)OCc2ccccc2)CSC1(C)C
solubility (physchem): 47 µg/mL (≈ 89.1 µM)

Cc1cccc(C)c1OCC(=O)O[C@H](C(=O)N1CSC(C)(C)[C@H]1C(=O)NC(C)(C)C)[C@@H](N)Cc1ccccc1.Cl
solubility (physchem): 13000 µg/mL | Solubility ratio [1]: 8666 | T1/2 [2]: < 1 min

COc1ccc(C(=O)O[C@H](C(=O)N2CSC(C)(C)[C@H]2C(=O)NC(C)(C)C)[C@@H](N)Cc2ccccc2)cc1.Cl
solubility (physchem): 16000 µg/mL | Solubility ratio [1]: 211 | T1/2 [2]: 67 min

CC(C)(C)NC(=O)[C@H]1N(C(=O)[C@@H](O)[C@H](Cc2ccccc2)NC(=O)c2ccc(Cl)cc2)CSC1(C)C
solubility (physchem): 28 µg/mL (≈ 52.6 µM)

CC(C)(C)NC(=O)[C@H]1N(C(=O)[C@@H](O)[C@H](Cc2ccccc2)NC(=O)c2ccc([N+](=O)[O-])cc2)CSC1(C)C
solubility (physchem): 57 µg/mL (≈ 105 µM)

CC(C)(C)NC(=O)[C@H]1N(C(=O)[C@@H](OC(=O)OCc2ccccc2)[C@@H](N)Cc2ccccc2)CSC1(C)C.Cl
solubility (physchem): 21000 µg/mL | Solubility ratio [1]: 449 | T1/2 [2]: < 1 min | pKa [3]: 3.2

CC(C)(C)NC(=O)[C@H]1N(C(=O)[C@@H](O)[C@H](Cc2ccccc2)NC(=O)Cc2ccccc2)CSC1(C)C
solubility (physchem): 97 µg/mL (≈ 190 µM)
